Patent publication US7442699B2, “Anilinopyrimidine derivatives as IKK inhibitors and compositions and methods related thereto” (Signal Pharmaceuticals, LLC, priority 2000, dated 2008)
Read-outs that look alike come from different tables or passages of the source.

Molecular target: T1, IKK-2 (Homo sapiens, UniProt O14920, S177E/S181E)
T1 construct: His6
T1 sequence (O14920 1-756 S177E/S181E): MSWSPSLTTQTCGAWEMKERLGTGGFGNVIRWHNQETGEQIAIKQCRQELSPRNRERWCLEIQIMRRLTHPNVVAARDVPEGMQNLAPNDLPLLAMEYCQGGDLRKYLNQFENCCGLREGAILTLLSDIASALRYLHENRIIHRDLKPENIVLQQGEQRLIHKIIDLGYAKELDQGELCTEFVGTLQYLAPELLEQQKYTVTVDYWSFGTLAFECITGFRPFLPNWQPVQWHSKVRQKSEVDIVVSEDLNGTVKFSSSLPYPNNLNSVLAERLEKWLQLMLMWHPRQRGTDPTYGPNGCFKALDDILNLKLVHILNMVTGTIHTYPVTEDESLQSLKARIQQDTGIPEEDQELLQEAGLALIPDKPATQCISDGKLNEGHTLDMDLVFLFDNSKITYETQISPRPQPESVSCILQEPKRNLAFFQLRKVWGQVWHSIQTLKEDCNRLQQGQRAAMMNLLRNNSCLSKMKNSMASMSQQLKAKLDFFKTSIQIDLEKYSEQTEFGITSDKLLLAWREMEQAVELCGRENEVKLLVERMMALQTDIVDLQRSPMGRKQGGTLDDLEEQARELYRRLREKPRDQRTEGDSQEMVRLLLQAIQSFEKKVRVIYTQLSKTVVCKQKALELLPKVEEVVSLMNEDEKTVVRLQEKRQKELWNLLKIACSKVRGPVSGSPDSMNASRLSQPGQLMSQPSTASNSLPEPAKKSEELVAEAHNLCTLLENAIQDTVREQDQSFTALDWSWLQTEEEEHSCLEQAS
Experiment: IKK-2 Enzyme Assay
Type: biochemical
Procedure: The mixture is preincubated for 15 minutes at room temperature. […] After 30 minutes the precipitate is harvested onto a filter plate to which 50 μl of scintillation fluid is added and then quantified by a scintillation counter.

[1] = more preferred compounds, 500 nM or less, read-out: IC50 value in the IKK-2 Enzyme Assay
[2] = preferred compounds, 1 μM or less, read-out: IC50 value in the IKK-2 Enzyme Assay

SMILES	IC50 [1] [nM]	IC50 [2] [nM]	IC50 (IC50 value in the IKK-2 Enzyme Assay, more preferred compounds, 500 nM or less) [nM]	IC50 (IC50 value in the IKK-2 Enzyme Assay, preferred compounds, 1 μM or less) [nM]
CC(C)(C)OC(=O)N1CCN(C(=O)c2ccc(Nc3nccc(-c4ccc(Cl)cc4)n3)cc2)CC1 [Compound 17-36]	≤ 500	≤ 1000		
CN(C)C(=O)c1ccc(Nc2nccc(-c3ccc(Cl)cc3)n2)cc1 [Compound 17-2]	≤ 500	≤ 1000		
CC(=O)N1CCN(C(=O)c2ccc(Nc3nccc(-c4ccc(SCCCO)cc4)n3)cc2)CC1 [Compound 17-33]	≤ 500	≤ 1000		
O=C(NCCCO)c1ccc(Nc2nccc(-c3ccc(Cl)cc3)n2)cc1 [Compound 17-25]		≤ 1000		
CN1CCCC1CCNC(=O)c1ccc(Nc2nccc(-c3ccc(Cl)cc3)n2)cc1 (stereo not drawn) [Compound 17-152]		≤ 1000		
CN(C)C(=O)NC1CCN(C(=O)c2ccc(Nc3nccc(-c4ccc(Cl)cc4)n3)cc2)CC1 [Compound 20-5]	≤ 500	≤ 1000		
CC(=O)N1CCCN(C(=O)c2ccc(Nc3nccc(-c4ccc(Cl)cc4)n3)cc2)CC1 [Compound 17-160]	≤ 500	≤ 1000		
O=C(NCCCN1CCCC1=O)c1ccc(Nc2nccc(-c3ccc(Cl)cc3)n2)cc1 [Compound 17-54]		≤ 1000		
COCC(=O)NC1CCN(C(=O)c2ccc(Nc3nccc(-c4ccc(Cl)cc4)n3)cc2)CC1 [Compound 20-6]	≤ 500	≤ 1000		
CC(=O)NC1CCN(C(=O)c2ccc(Nc3nccc(-c4ccc(Cl)cc4)n3)cc2)CC1 [Compound 20-1, N-{1-[(4-{[4-(4-Chlorophenyl)pyrimidin-2-yl]amino}phenyl)carbonyl]-4-piperidyl}acetamide]	≤ 500	≤ 1000		
CC(=O)NCCNC(=O)c1ccc(Nc2nccc(-c3ccc(Cl)cc3)n2)cc1 [Compound 17-22]		≤ 1000		
CN(C)CCCNC(=O)c1ccc(Nc2nccc(-c3ccc(Cl)cc3)n2)cc1 [Compound 17-154]	≤ 500	≤ 1000		
O=C(c1ccc(Nc2nccc(-c3ccc(Cl)cc3)n2)cc1)N1CCC(N2CCCCC2)CC1 [Compound 17-169]	≤ 500	≤ 1000		
O=C(c1ccc(Nc2nccc(-c3ccc(Cl)cc3)n2)cc1)N1CCC(N2CCCC2)CC1 [Compound 17-171]	≤ 500	≤ 1000		
CC(=O)N1CCN(C(=O)c2ccc(Nc3nccc(-c4ccc(S(=O)(=O)c5ccncc5)cc4)n3)cc2)CC1 [Compound 17-29]	≤ 500	≤ 1000		
O=C(NCCCN1CCOCC1)c1ccc(Nc2nccc(-c3ccc(Cl)cc3)n2)cc1 [Compound 17-86]	≤ 500	≤ 1000		
CCOC(=O)N1CCN(C(=O)c2ccc(Nc3nccc(-c4ccc(Cl)cc4)n3)cc2)CC1 [Compound 17-137]	≤ 500	≤ 1000		
NC(=O)c1ccc(Nc2nccc(-c3ccc(S(=O)(=O)c4ccncc4)cc3)n2)cc1 [Compound 3-8]	≤ 500	≤ 1000		
O=C(c1ccc(Nc2nccc(-c3ccc(Cl)cc3)n2)cc1)N1CCCCC1 [Compound 17-71]		≤ 1000		

SMILES	IC50 [1] [nM]	IC50 [2] [nM]	IC50 (IC50 value in the IKK-2 Enzyme Assay, more preferred compounds, 500 nM or less) [nM]	IC50 (IC50 value in the IKK-2 Enzyme Assay, preferred compounds, 1 μM or less) [nM]
O=C(NC1CCN(C(=O)c2ccc(Nc3nccc(-c4ccc(Cl)cc4)n3)cc2)CC1)c1cccs1 [Compound 20-3]	≤ 500	≤ 1000		
O=C(c1ccc(Nc2nccc(-c3ccc(Cl)cc3)n2)cc1)N1CCC(O)C1 (stereo not drawn) [Compound 17-28]	≤ 500	≤ 1000		
O=C(c1ccc(Nc2nccc(-c3ccc(Cl)cc3)n2)cc1)N1CCN(CCO)CC1 [Compound 17-215]	≤ 500	≤ 1000		
O=C(NCCc1ccccn1)c1ccc(Nc2nccc(-c3ccc(Cl)cc3)n2)cc1 [Compound 17-118]		≤ 1000		
CN1CCN(C(=O)c2ccc(Nc3nccc(-c4ccc(Cl)cc4)n3)cc2)CC1 [Compound 17-127]	≤ 500	≤ 1000		
COC(=O)CNC(=O)c1ccc(Nc2nccc(-c3ccc(Cl)cc3)n2)cc1 [Compound 17-91]	≤ 500	≤ 1000		
O=C(c1ccc(Nc2nccc(-c3ccc(Cl)cc3)n2)cc1)N1CCN(C(=O)c2ccco2)CC1 [Compound 17-159]	≤ 500	≤ 1000		
O=C(c1ccc(Nc2nccc(-c3ccc(Cl)cc3)n2)cc1)N1CCC2(CC1)OCCO2 [Compound 17-139]			≤ 500	≤ 1000
O=C(c1ccc(Nc2nccc(-c3ccc(Cl)cc3)n2)cc1)N1CCOCC1 [Compound 17-133]	≤ 500	≤ 1000		
O=C(c1ccc(Nc2nccc(-c3ccc(S(=O)(=O)c4ccncc4)cc3)n2)cc1)N1CCN(C(=O)c2ccco2)CC1 [Compound 17-30]	≤ 500	≤ 1000		
CCC(=O)N1CCN(C(=O)c2ccc(Nc3nccc(-c4ccc(Cl)cc4)n3)cc2)CC1 [Compound 17-37]	≤ 500			
CCN(CC)CCCNC(=O)c1ccc(Nc2nccc(-c3ccc(Cl)cc3)n2)cc1 [Compound 17-153]		≤ 1000		
CN(CCc1ccccn1)C(=O)c1ccc(Nc2nccc(-c3ccc(Cl)cc3)n2)cc1 [Compound 17-151]		≤ 1000		
NC(=O)c1ccc(Nc2nccc(-c3ccc(SCCCO)cc3)n2)cc1 [Compound 3-14]	≤ 500	≤ 1000		
CC(=O)N1CCN(C(=O)c2ccc(Nc3nccc(-c4ccc(Cl)cc4)n3)cc2)CC1 [Compound 17-129]	≤ 500	≤ 1000		
CN(C)C(=O)c1ccc(Nc2nccc(-c3ccc(Br)cc3)n2)cc1 [Compound 17-18]	≤ 500	≤ 1000		
CCN(C(C)=O)C1CCN(C(=O)c2ccc(Nc3nccc(-c4ccc(Cl)cc4)n3)cc2)C1 (stereo not drawn) [Compound 17-162]	≤ 500	≤ 1000		
NC(=O)c1ccc(Nc2nccc(-c3ccc(S(=O)(=O)c4ccccc4)cc3)n2)cc1 [Compound 3-21]	≤ 500	≤ 1000		
Cc1noc(C)c1C(=O)NC1CCN(C(=O)c2ccc(Nc3nccc(-c4ccc(Cl)cc4)n3)cc2)CC1 [Compound 20-2]	≤ 500	≤ 1000		

SMILES	IC50 [1] [nM]	IC50 [2] [nM]	IC50 (IC50 value in the IKK-2 Enzyme Assay, more preferred compounds, 500 nM or less) [nM]	IC50 (IC50 value in the IKK-2 Enzyme Assay, preferred compounds, 1 μM or less) [nM]
O=C(c1ccc(Nc2nccc(-c3ccc(Cl)cc3)n2)cc1)N1CCC(O)CC1 [Compound 17-20]	≤ 500	≤ 1000		
O=C(c1ccc(Nc2nccc(-c3ccc(Cl)cc3)n2)cc1)N1CCC[C@@H]1CO [Compound 17-27]	≤ 500	≤ 1000		
NC(=O)c1ccc(Nc2nccc(-c3ccc(S(=O)(=O)c4ccccn4)cc3)n2)cc1 [Compound 3-9]		≤ 1000		
O=C(c1ccc(Nc2nccc(-c3ccc(Cl)cc3)n2)cc1)N1CC=CCC1 [Compound 17-144]		≤ 1000		
NC(=O)c1ccc(Nc2nccc(-c3ccc(S(=O)(=O)CCCO)cc3)n2)cc1 [Compound 3-15]		≤ 1000		
O=C(c1ccc(Nc2nccc(-c3ccc(Cl)cc3)n2)cc1)N1CCN(c2ccccc2)CC1 [Compound 17-158]		≤ 1000		
NC(=O)c1ccc(Nc2nccc(-c3ccc4ccccc4c3)n2)cc1 [Compound 3-34]		≤ 1000		
C[C@@H]1CN(C(=O)c2ccc(Nc3nccc(-c4ccc(Cl)cc4)n3)cc2)C[C@H](C)N1 [Compound 17-190]	≤ 500	≤ 1000		
CNC(=O)c1ccc(Nc2nccc(-c3ccc(Cl)cc3)n2)cc1 [Compound 17-3]		≤ 1000		
O=C(NC1CCN(C(=O)c2ccc(Nc3nccc(-c4ccc(Cl)cc4)n3)cc2)CC1)N1CCOCC1 [Compound 20-4]	≤ 500	≤ 1000		
CN(C)C(=O)c1ccc(Nc2nccc(-c3ccc(SCCCO)cc3)n2)cc1 [Compound 17-31]	≤ 500	≤ 1000		
O=C(c1ccc(Nc2nccc(-c3ccc(Cl)cc3)n2)cc1)N1CCN(c2ccc([N+](=O)[O-])cc2)CC1 [Compound 17-136]		≤ 1000		
CC(=O)N(C)C1CCN(C(=O)c2ccc(Nc3nccc(-c4ccc(Cl)cc4)n3)cc2)C1 (stereo not drawn) [Compound 17-163]	≤ 500	≤ 1000		
CCN1CCN(C(=O)c2ccc(Nc3nccc(-c4ccc(Cl)cc4)n3)cc2)CC1 [Compound 17-35]	≤ 500	≤ 1000		
O=C(NCCCN1CCCCC1)c1ccc(Nc2nccc(-c3ccc(Cl)cc3)n2)cc1 [Compound 17-23]		≤ 1000		
CC(C)NC(=O)CN1CCN(C(=O)c2ccc(Nc3nccc(-c4ccc(Cl)cc4)n3)cc2)CC1 [Compound 17-141]	≤ 500	≤ 1000		
COCCCNC(=O)c1ccc(Nc2nccc(-c3ccc(Cl)cc3)n2)cc1 [Compound 17-72]		≤ 1000		
O=CN1CCN(C(=O)c2ccc(Nc3nccc(-c4ccc(Cl)cc4)n3)cc2)CC1 [Compound 17-131]	≤ 500	≤ 1000		
O=C(c1ccc(Nc2nccc(-c3ccc(Cl)cc3)n2)cc1)N1CCN(Cc2cccnc2)CC1 [Compound 17-161]	≤ 500	≤ 1000		
